From patent US20250312469A1 (CANGET BIOTEKPHARMA, priority 2024, published 2025)
Where “and” joins values, the source holds several entries; their conditions need not be identical. Identical values can stand only once.

What was measured:
TA1535 = assay: Ames Bacterial Reverse Mutation Assay
Method: The Ames Bacterial Reverse Mutation (AB™) used five bacterial tester strains (TA97a, TA98, TA100, TA1535, WP2-uvrA).
Tester strains were added to flasks containing nutrient broth and incubated at 37+2° C. overnight. The flasks were removed from the overnight incubation and the final concentration was determined (the OD was measured and determined whether growth was suitable for testing). Top agar was melted, and 2.0 mL was dispensed into heated culture tubes. The S9 mix (metabolic activation) was prepared and stored on ice. […] Each culture tube was vortexed and immediately poured onto the labeled minimal glucose agar plates. All plates were inverted and placed into a 37±1° C. incubator for 48-72 hours. The plates were counted via an automated colony counter or by hand and the background lawn was microscopically evaluated for any signs of toxicity. Genotypic control plates were prepared for each tester strain and incubated for 24-72 hours at 37±1° C.

[1] = target: T1, bovine serum albumin (BSA) (Bos taurus, UniProt P02769); assay: ITC, BSA control protein; assay type: binding
T1 construct: purchased EMD (Billerica, MA)
Method: (2) Preparation of Flag-DDX5, Flag-USP2, Flag-UbE2T and Flag-Top1 protein solutions (>360 μL/sample), respectively, containing 10 μM of Flag-DDX5, Flag-USP2, Flag-UbE2T or Flag-Top1 proteins in 1×PBS (pH7.4) and 8% DMSO from protein stocks in 1× PBS (the same solution was also prepared for BSA).
(3) preparation of washing/diluting solution (>2.5 mL/sample) containing 1× PBS (pH7.4) and 8% DMSO.
(4) ITC assay was performed using the auto-iTC200 instrument (MicroCal, GE). A protein solution (Flag-DDX5, Flag-USP2, Flag-UbE2T, Flag-Topl or BSA) with defined concentration (10 μM) in a volume of 360 μL in 1×PBS (pH7.4) containing 8% DMSO was loaded into the calorimeter cell as the Macromolecule (M). […] At each injection, the program calculates [M]t and [X]t (total protein and total ligand at that injection). The binding constant (KD)), binding stoichiometry (n), and thermodynamic parameters (AH and AS) were determined by fitting the titration curve to a one-site binding mode, using the Origin software provided by the manufacturer.

[2] = TA1535 partial repeat, 0.010 μM −S9
[3] = TA1535 partial repeat, 0.10 μM −S9
[4] = TA1535 partial repeat, 1.0 μM −S9

T1 sequence (P02769 25-607): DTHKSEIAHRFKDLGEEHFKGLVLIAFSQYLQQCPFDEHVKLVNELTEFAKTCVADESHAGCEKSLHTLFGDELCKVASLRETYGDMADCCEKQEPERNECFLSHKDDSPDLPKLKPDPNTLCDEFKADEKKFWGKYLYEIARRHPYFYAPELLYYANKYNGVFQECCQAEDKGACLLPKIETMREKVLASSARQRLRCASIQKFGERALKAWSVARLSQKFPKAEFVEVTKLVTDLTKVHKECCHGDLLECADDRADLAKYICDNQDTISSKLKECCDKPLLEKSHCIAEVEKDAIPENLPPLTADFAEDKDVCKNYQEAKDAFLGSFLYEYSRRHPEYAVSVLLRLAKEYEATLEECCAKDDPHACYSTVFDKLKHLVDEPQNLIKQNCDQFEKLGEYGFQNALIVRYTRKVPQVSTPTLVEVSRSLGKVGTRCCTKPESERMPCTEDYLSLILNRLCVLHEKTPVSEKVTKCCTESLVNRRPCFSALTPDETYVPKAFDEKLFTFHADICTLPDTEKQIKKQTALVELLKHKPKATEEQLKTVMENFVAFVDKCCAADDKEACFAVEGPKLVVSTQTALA

With `CCC1(O)C(=O)OCc2c1cc1n(c2=O)Cc2cc3cc4c(cc3nc2-1)OCO4` (stereo not drawn) [FL118] as the compound, how does the bacterial strain mutation (TA1535) read?
Its bacterial strain mutation is “does not induce”.

And the “Background Lawn Code” value (TA1535; TA1535, 0.010 μM +S9)?
The value was 1.

And the “Colony Counts Average” value (TA1535; TA1535, 0.010 μM +S9)?
Its value is 14.

What about the “Colony Counts Replicate 1-3” value (TA1535; TA1535, 0.010 μM +S9) of the same compound?
Its value is 20 and 9 and 13.

And the “Background Lawn Code” value (TA1535; TA1535, 0.010 μM −S9)?
The value was 1.

What about the “Colony Counts Average” value (TA1535; TA1535, 0.010 μM −S9) of the same compound?
Its value is 39.

And the “Colony Counts Replicate 1-3” value (TA1535; TA1535, 0.010 μM −S9)?
The value was 39 and 37 and 41.

What about the “Background Lawn Code” value (TA1535; TA1535, 0.10 μM +S9) of the same compound?
The value was 1.

And the “Colony Counts Average” value (TA1535; TA1535, 0.10 μM +S9)?
Its value is 14.

What about the “Colony Counts Replicate 1-3” value (TA1535; TA1535, 0.10 μM +S9) of the same compound?
Its value is 13 and 8 and 20.

What about the “Background Lawn Code” value (TA1535; TA1535, 0.10 μM −S9) of the same compound?
The value was 1.

What about the “Colony Counts Average” value (TA1535; TA1535, 0.10 μM −S9) of the same compound?
Its value is 61.

And the “Colony Counts Replicate 1-3” value (TA1535; TA1535, 0.10 μM −S9)?
Its value is 54 and 62 and 67.

And the “Background Lawn Code” value (TA1535; TA1535, 1.0 μM +S9)?
Its value is 1.

And the “Colony Counts Average” value (TA1535; TA1535, 1.0 μM +S9)?
The value was 12.

And the “Colony Counts Replicate 1-3” value (TA1535; TA1535, 1.0 μM +S9)?
Its value is 12 and 10 and 15.

And the “Background Lawn Code” value (TA1535; TA1535, 1.0 μM −S9)?
Its value is 1.

And the “Colony Counts Average” value (TA1535; TA1535, 1.0 μM −S9)?
Its value is 25.

What about the “Colony Counts Replicate 1-3” value (TA1535; TA1535, 1.0 μM −S9) of the same compound?
Its value is 23 and 21 and 30.

And the “Background Lawn Code” value (TA1535; [2])?
Its value is 1.

What about the “Colony Counts Average” value (TA1535; [2]) of the same compound?
The value was 12.

What about the “Colony Counts Replicate 1-3” value (TA1535; [2]) of the same compound?
Its value is 13 and 12 (2×).

What about the “Background Lawn Code” value (TA1535; [3]) of the same compound?
Its value is 1.

What about the “Colony Counts Average” value (TA1535; [3]) of the same compound?
The value was 14.

And the “Colony Counts Replicate 1-3” value (TA1535; [3])?
Its value is 16 and 15 and 10.

What about the “Background Lawn Code” value (TA1535; [4]) of the same compound?
Its value is 1.

What about the “Colony Counts Average” value (TA1535; [4]) of the same compound?
Its value is 12.

And the “Colony Counts Replicate 1-3” value (TA1535; [4])?
Its value is 11 and 13 and 12.

What about the “mean revertant colonies over negative control” value (TA1535; repeat assay, -S9 condition) of the same compound?
Its value is “less than 2 fold”.

What about the “binding to BSA” value [1] of the same compound?
Its value is “no binding”.
